For test [1], the target named is T1, Heat shock factor protein 1 (Mus musculus, UniProt P38532).
T1 sequence (P38532 whole entry): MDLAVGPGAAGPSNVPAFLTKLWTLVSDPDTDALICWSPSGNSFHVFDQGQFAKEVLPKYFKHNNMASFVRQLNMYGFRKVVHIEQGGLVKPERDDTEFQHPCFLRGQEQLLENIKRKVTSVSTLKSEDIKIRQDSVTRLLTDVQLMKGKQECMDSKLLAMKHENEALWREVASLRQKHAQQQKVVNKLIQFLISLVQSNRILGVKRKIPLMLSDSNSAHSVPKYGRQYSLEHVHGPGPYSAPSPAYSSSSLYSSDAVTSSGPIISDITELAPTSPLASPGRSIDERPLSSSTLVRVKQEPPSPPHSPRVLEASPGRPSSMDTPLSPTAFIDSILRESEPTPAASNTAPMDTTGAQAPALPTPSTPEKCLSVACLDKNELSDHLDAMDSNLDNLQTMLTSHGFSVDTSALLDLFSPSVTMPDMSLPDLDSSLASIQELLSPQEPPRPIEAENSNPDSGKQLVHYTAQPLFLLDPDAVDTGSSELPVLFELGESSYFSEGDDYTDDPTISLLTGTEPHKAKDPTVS
Kind of test: inhibition of MG132-induced HSE-luciferase signal, confirmation, cell-based, NIH3T3, luminescence, dose retest (AID 2382).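 Also: NIH3T3 fibroblasts with HSF1-driven luciferase reporter stressed by proteasome inhibitor MG132; luminescence from HSF1-driven luciferase expression after 8 hours of MG132 stress.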 It is filed as functional.

Test [2] deals with T2, Corticotropin-releasing factor receptor 2/Corticotropin-releasing factor-binding protein (Homo sapiens, UniProt P24387+Q13324).
T2 sequence (Q13324 whole entry): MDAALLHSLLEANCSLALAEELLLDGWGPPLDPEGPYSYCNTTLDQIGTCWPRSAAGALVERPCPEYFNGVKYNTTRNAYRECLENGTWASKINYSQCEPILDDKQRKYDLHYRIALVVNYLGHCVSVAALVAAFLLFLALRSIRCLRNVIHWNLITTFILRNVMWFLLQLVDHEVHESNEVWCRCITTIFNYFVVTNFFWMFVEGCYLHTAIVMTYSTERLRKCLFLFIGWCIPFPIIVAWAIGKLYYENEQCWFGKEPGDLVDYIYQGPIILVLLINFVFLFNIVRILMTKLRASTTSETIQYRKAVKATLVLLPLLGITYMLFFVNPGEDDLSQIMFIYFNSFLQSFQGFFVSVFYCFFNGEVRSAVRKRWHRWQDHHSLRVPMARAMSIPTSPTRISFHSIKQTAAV
T2 sequence (P24387 whole entry): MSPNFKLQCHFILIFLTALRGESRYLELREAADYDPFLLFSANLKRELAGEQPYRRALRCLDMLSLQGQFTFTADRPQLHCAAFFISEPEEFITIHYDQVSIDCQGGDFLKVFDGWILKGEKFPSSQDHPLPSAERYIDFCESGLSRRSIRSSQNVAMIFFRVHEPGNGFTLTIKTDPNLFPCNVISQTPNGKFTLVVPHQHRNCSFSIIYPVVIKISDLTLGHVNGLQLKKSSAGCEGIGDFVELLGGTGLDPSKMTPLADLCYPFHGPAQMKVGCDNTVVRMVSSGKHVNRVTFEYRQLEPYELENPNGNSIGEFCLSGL
Kind of test: activators of CRF receptor 2 with binding protein – uHTS hits, confirmation (AID 602473). It is filed as functional. The note with it: read-out: EC50_Mean.

Test [3] in a line: HEp-2 cell cytotoxicity, dose response, cytotoxicity control for RSV inhibitor project, HTS (AID 2410). It is filed as functional. Conditions: human respiratory syncytial virus.
The target in test [4] is T2, Corticotropin-releasing factor receptor 2/Corticotropin-releasing factor-binding protein. Kind of test: Dose Response confirmation of uHTS hits for small molecule antagonists of the CRF-binding protein and CRF-R2 receptor complex. It is filed as functional. Conditions: read-out: IC50_Mean.
In test [5] the target is T1, Heat shock factor protein 1. Kind of test: HSF1 potentiators in luciferase reporter cells, confirmation, cell-based, NIH3T3, luminescence, dose retest (AID 435004).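 Also: stress induced by proteasome inhibitor MG132 added 30 min after compound; luciferase reporter driven by HSF1 response element in NIH3T3 cells; actives raise luminescence as potentiators of the MG132 stress response.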 It is filed as functional.
The target in another test is Cytochrome P450 2D6 (Homo sapiens, UniProt P10635).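 Also: CYP2D6 member of a cytochrome P450 panel assay.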
Sequence of Cytochrome P450 2D6 (P10635 whole entry): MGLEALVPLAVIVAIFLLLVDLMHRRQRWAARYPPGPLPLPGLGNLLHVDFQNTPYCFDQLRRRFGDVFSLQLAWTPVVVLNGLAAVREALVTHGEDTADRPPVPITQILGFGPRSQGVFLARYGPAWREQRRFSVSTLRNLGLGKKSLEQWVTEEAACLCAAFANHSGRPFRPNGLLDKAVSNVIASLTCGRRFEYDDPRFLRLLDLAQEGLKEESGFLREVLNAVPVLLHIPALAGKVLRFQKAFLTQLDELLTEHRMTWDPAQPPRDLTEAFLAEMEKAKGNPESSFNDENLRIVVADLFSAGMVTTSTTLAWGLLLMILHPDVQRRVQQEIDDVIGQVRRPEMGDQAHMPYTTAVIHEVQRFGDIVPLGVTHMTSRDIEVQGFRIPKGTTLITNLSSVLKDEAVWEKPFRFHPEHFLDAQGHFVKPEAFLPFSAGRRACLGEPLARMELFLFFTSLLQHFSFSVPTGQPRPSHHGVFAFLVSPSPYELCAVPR
Another test addresses T3, Cytochrome P450 1A2 (Homo sapiens, UniProt P05177).
T3 sequence (P05177 whole entry): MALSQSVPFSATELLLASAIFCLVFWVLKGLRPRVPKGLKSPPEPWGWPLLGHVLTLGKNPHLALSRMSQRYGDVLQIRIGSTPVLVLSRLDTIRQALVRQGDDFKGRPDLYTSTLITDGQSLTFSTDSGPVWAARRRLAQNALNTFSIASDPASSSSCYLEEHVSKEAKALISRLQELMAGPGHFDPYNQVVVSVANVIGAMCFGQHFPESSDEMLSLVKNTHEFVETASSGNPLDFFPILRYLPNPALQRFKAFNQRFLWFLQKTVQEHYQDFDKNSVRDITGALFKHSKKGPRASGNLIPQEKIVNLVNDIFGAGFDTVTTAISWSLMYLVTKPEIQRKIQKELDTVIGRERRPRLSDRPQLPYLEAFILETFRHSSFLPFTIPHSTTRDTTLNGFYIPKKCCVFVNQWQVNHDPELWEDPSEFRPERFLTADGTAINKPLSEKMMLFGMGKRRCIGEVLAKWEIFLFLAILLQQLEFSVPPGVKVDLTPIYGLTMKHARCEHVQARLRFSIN

In the next test the target is Cytochrome P450 2C9 (Homo sapiens, UniProt P11712).
Sequence of Cytochrome P450 2C9 (P11712 whole entry): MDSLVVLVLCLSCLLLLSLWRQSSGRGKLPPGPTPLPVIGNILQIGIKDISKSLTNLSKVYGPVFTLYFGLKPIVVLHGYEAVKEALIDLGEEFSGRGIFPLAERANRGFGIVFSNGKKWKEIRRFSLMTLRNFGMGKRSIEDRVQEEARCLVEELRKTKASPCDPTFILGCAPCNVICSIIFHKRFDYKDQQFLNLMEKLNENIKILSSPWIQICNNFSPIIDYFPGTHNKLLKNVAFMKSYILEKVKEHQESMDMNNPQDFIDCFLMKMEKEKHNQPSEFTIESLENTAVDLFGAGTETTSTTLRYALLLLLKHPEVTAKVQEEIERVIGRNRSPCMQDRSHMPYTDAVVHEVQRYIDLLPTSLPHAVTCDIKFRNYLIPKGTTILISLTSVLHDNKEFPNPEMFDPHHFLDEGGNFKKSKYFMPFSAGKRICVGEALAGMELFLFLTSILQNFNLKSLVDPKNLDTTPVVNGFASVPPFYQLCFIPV
Another test has as its system Streptococcus. Kind of test: Group A Streptococcus viability loss, dose response, counter-screen for streptokinase expression inhibitor project, luminescence, BacTiterGlo (AID 1915).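 Also: potency for reduction of bacterial viability or growth.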 It is filed as functional, organism-based.
Test [6] deals with Streptococcus sp. 'group A'. Kind of test: growth inhibition of control SK(-) GAS strain, dose response, counter-screen for streptokinase expression inhibitor project, luminescence, kanamycin, BacTiterGlo, confirmation (AID 1900). It is filed as functional, organism-based.
Test [7] is described as follows: inhibitors of intracellular T. cruzi replication, confirmation, NIH3T3 host cells, beta-gal luminescence (AID 2044).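 Also: intracellular parasites grown in NIH/3T3 mouse fibroblasts as host cells; luminescent beta-galactosidase reporter signal from transgenic T. cruzi replicating inside host cells; inhibitors lower the luminescence signal.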 It is filed as functional, cell-based.
A short description of test [8]: cytotoxicity toward NIH3T3 fibroblasts, dose response, counter-screen, cell-based, ATP luminescence, mouse fibroblasts (AID 2010).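 Also: cells exposed to compound for about 90 hours before reading.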 It is filed as functional.

Active and inactive are the calls of the source. Rule as the data show it, for most assays here: actives have a measured EC50 and inactives only a lower limit.

In the case of `CCC(N=C(S)NC1CCCCC1)c1ccccc1` (stereo not given), in test [1], the EC50 is given as > 195 µM (not active). With `c1ccc(CCNc2nc3ccccc3n3nnnc23)cc1`, in [2], the EC50 is > 53 µM (inactive). For the molecule `Cc1cc(C)n(-c2ccc3nnc(C)n3n2)n1`, the CC50 in test [3] is 22 µM (active). Regarding `CCOC(=O)c1c(-c2ccc(OC)cc2)csc1NC(=O)CNCc1ccco1`, the IC50 in [4] was > 47.1 µM (inactive). In addition, in [2], the EC50 is > 53 µM (inactive). With `O=C1CCN(C(=O)Nc2ccccc2Cl)N1`, the EC50 in test [5] was > 260 µM (inactive). In the case of `O=C(c1cc(C(F)(F)F)cc(C(F)(F)F)c1)N1CCC[C@@]2(CCN(c3ccccn3)C2)C1`, the AC50 at Cytochrome P450 2D6 was 20 µM (inconclusive); on Cytochrome P450 1A2 it was 25.1 µM (inconclusive).

`Cc1ccc2c(c1)N(C(=O)CCC(=O)N1CCC3(CC1)OCCO3)CCO2`: the EC50 in test [1] was > 195 µM (not active). For `Cc1[nH]c2ccccc2c1SCc1nnc(SCc2ccccc2)n1C`, the IC50 in test [4] is > 47.1 µM (inactive). Also, the EC50 in test [2] was > 53 µM (inactive).

For `O=C(CCSc1ccc(Br)cc1)Nc1cccnc1`, in test [4], the IC50 is > 47.1 µM (inactive). In [2], the EC50 is > 53 µM (inactive). Taken in the same sequence, the figures for `Cc1ccc(C(=O)N2CCN(C(=O)CN3CCOCC3)C2)cc1` were > 47.1 µM (inactive) and > 53 µM (inactive). Turning to `N#Cc1cccc(NC(=O)N2CCCC3(CCN(C(=O)c4cccc(F)c4)CC3)C2)c1`, the AC50 at Cytochrome P450 2D6 is 39.8 µM (inconclusive); on Cytochrome P450 2C9, 31.6 µM (inconclusive); on Cytochrome P450 1A2, 12.6 µM (inconclusive). Regarding `CCN(C(=O)c1cc2c(O)nc3ccc(C)cc3c2s1)c1ccc(F)cc1`, in [1], the EC50 is recorded as > 195 µM (not active). On to `CCn1c(CNC(C)=O)nnc1SCC(=O)c1ccc(Br)cc1`, for which the EC50 in test [5] is > 260 µM (inactive). On to `O=C(NCc1nnc2c3ccccc3c(-c3ccccc3)nn12)c1ccc(Cl)cc1`, for which the cytotoxic concentration (CC50) in test [3] was 7.36 µM (active).

Consider `Cc1ccc(/C=C2/NC(=O)N(Cc3ccc(Br)cc3)C2=O)o1`, for which the EC50 in test [5] is > 260 µM (inactive). On to `CCOc1ccccc1Nc1nc(-c2sc(NC(=O)c3ccccc3)nc2C)cs1`, for which the AC50 on Cytochrome P450 2D6 was 20 µM (inconclusive); at Cytochrome P450 1A2, 6.31 µM (inconclusive). Turning to `O=C(NCCc1cn[nH]c1)C1CCC(=O)N(CCc2cccc(F)c2)C1` (stereo not given), the IC50 in test [4] was > 47.1 µM (inactive). Besides, the EC50 in test [2] is > 53 µM (inactive). `Clc1ccc(CSc2nnc(-c3sccc3-n3cccc3)o2)cc1`: the figures for the half-maximal activity concentration (AC50) at Cytochrome P450 2D6 and at Cytochrome P450 2C9 were 11.2 µM (inconclusive) and 14.1 µM (inconclusive), respectively. For the same molecule, in [5], the EC50 is > 260 µM (inactive). Regarding `COc1ccc(N2CCN(C(=O)c3ccc(NS(=O)(=O)c4ccccc4)cc3)CC2)cc1`, the EC50 in test [1] is > 195 µM (not active). Turning to `CO[C@H]1C=CO[C@@]2(C)Oc3c(C)c(O)c4c(O)c(c5c(nc6cc(C)ccn65)c4c3C2=O)NC(=O)C(C)=CC=C[C@H](C)[C@H](O)[C@@H](C)[C@@H](O)[C@@H](C)[C@H](OC(C)=O)[C@@H]1C`, the EC50 was 0.071 µM (active) with Streptococcus and < 0.06 µM (active) in test [6].

Regarding `COc1ccc(NC(S)=Nc2ccc(C)c(S(=O)(=O)N3CCCCC3)c2)cc1`, the EC50 in [1] is > 195 µM (not active). On to `O=C(Nc1cccc2ccccc12)N1CC=CCC1`, for which, in test [4], the IC50 was < 0.368 µM (active). Besides, the EC50 in test [2] was > 53 µM (inactive). For `COc1ccccc1N1CCN(C2CCCN(C(=O)c3cc(C4CC4)on3)C2)CC1` (stereo not given) the same measures were > 47.1 µM (inactive) and > 53 µM (inactive). In the case of `COc1ccc2nc(NC(=O)C3CCCN(S(=O)(=O)c4cccc5nonc45)C3)sc2c1` (stereo not given), the half-maximal cytotoxic concentration (CC50) in [3] is > 50 µM (active). For the molecule `CC(C)CNP(=S)(c1ccccc1)C(C)(C)C` (stereo not given), the IC50 in [4] is > 47.1 µM (inactive). Moreover, the EC50 in [2] is > 53 µM (inactive). Take `CN(CCC1CCCCO1)C(=O)CCc1nnc(CCCCc2ccccc2)o1` (stereo not given): the EC50 in test [5] was 242 µM (active). With `Fc1cccc(F)c1-c1nc(-c2ccncc2)no1`, in test [3], the CC50 is 38 µM (active). For `O=S(=O)(N1CCCCC1)N1CCN(c2ccc(F)cc2)CC1`, the EC50 in test [1] is listed as > 195 µM (not active). With `Cc1ccc(S(=O)(=O)NNC(=O)c2cnn(-c3ccc(Cl)cc3)c2C(F)(F)F)cc1`, the EC50 in [5] was > 260 µM (inactive). Turning to `NC(=O)CSc1nnc([C@@H](N)Cc2c[nH]c3ccccc23)o1`, in [1], the EC50 is on record as > 195 µM (not active). For the molecule `Cc1csc(NC(=O)Cc2ccccc2[N+](=O)[O-])n1`, in test [2], the EC50 is > 53 µM (inactive). As for `Cc1ccc(OCCOCCn2cnc3ccccc3c2=O)cc1C`, the 50% cytotoxic concentration (CC50) in test [3] is 23.3 µM (active). As to `COc1ccc(C(=O)Nc2cc(C(F)(F)F)ccc2-n2cnc3ccccc32)cc1`, the EC50 in [5] was > 260 µM (inactive). In the case of `CC(C)OC(=O)c1cc2c(ccn2C)n1CC(=O)N1CCC(Cc2ccccc2)CC1`, the results for the half-maximal activity concentration (AC50) at Cytochrome P450 2D6 and on Cytochrome P450 1A2 were 20 µM (inconclusive) and 25.1 µM (inconclusive), respectively. For `CCOc1cc(C)c(C(C)C)cc1S(=O)(=O)n1cnc(C)c1`, the results for the EC50 in [7], in test [2] and in test [8] were 1.53 µM (active), > 53 µM (inactive) and 8.49 µM (active), respectively. Turning to `Cc1cccc(NC(S)=Nc2ccc(Cl)c(Cl)c2)c1`, the EC50 with Streptococcus is > 150 µM (not active); in test [6], 11.5 µM (active).

Consider `COc1ccc(C(=O)Nc2ccc(OCc3ccccc3)cc2)cc1[N+](=O)[O-]`, for which the EC50 in [1] is 15.2 µM (active). As to `COc1ccc(NC(=O)CN(C)S(=O)(=O)c2ccc(Br)s2)cc1OC`, in test [5], the EC50 is > 260 µM (inactive).

For the molecule `Cc1ccc(S(=O)(=O)CCN2CCN(c3ccccc3)CC2)cc1`, in test [5], the EC50 is > 260 µM (inactive). For the molecule `Cc1c(Cl)c([N+](=O)[O-])nn1CC(=O)NC1CCCCC1`, the IC50 in [4] is > 47.1 µM (inactive). The EC50 in test [2] was > 53 µM (inactive).

On to `COc1ccc(CC(=O)NC(=S)Nc2cccc(C)c2)cc1`, for which, in test [2], the EC50 is 9.53 µM (active). For the molecule `Cc1ccc(CN2CC(=O)N3[C@H]4c5cc(Cl)ccc5OC[C@@H]4[C@H](c4ccccc4)[C@]3(C)C2=O)cc1`, the IC50 in test [4] is > 47.1 µM (inactive). The EC50 in test [2] was > 53 µM (inactive). As to `CCC1=C(OC(=O)N(CC)CC)N2C(=O)O/C(=N\CC3CC3)[C@]2(Cc2ccccc2)[C@H]2C1=CC[C@H]1C(=O)N(c3ccccc3)C(=O)[C@H]12`, in test [3], the CC50 is 36.7 µM (active). For the molecule `Cc1ccc(S(=O)(=O)N/N=C\c2cn(-c3ccccc3)nc2-c2ccccc2)cc1`, the 50% cytotoxic concentration (CC50) in test [3] was 13.2 µM (active).
